Source: patent publication US11352394B2, “Cyclic cell penetrating peptides comprising beta-hairpin motifs and methods of making and using thereof” (Ohio State Innovation Foundation, priority 2016, dated 2022)
Values joined by “and” are separate entries in the source; they are usually repeats but may differ in a detail not shown here. Equal values may be shown once. Bridge positions count the residues as written; N and C are the ends. Square brackets hold non-standard residues; d marks the D form. Ends that are not written are not given here. Phe(4-F) = N[C@@H](Cc1ccc(F)cc1)C(=O)O; 2Nal = N[C@@H](Cc1ccc2ccccc2c1)C(=O)O

Tested on: HeLa cells
Assay: Cellular (cytosolic) uptake of NF-labeled peptides by flow cytometry (MFI)
Type: cell-based
Conditions: HeLa cells, 5 μM NF-labeled peptide, 2 h, DMEM with 10% FBS and 1% ABS; relative to CPP9 (100%)
Experimental: HeLa cells were treated with 5 μM peptide for 2 h, and their cell uptake efficiencies were determined by flow cytometry analysis. The mean fluorescence intensity (MFI) values derived from cytometry analyses reflect the amounts of peptides inside the cytosol and nucleus, whereas any NF-labeled peptide entrapped inside the acidic endosomes are invisible under the experimental conditions (Id.; Qian, Z et al. Chem. Commun. 2015, 51, 2162-2165).
The binding affinity of BH23 (unlabeled) for the Grb2 SH2 domain was then determined by examining its ability to compete with the FAM-labeled ligand for binding to the Grb2 SH2 domain by fluorescence polarization (FP). […] Next, BH23 was labeled with NF at the Asn side chain through a miniPEG-Lys linker and its cytosolic entry efficiency was quantitated by treating HeLa cells with 5 μM of the labeled peptide for 2 h before flow cytometry analysis. […] BH23 was also similarly labeled at the Asn side chain with FAM and its entry into HeLa cells was examined by live-cell confocal microscopy. […] Two control peptides (BH24 and BH25) were also prepared for cellular assays. BH24 and BH25 are structurally similar to BH23, except that BH24 contained a Tyr instead of the pY residue (FIG. 11), whereas in BH25 the two hydrophobic residues critical for cellular uptake (Nal-arg) were replaced with Ala-ala (FIG. 12).
BHT1 and BHT2 were labeled with naphthofluorescein (NF) and their cytosolic uptake into HeLa cells was determined by flow cytometry (Table 10).
Additional cell penetrating compounds were prepared and tested for cytosolic delivery. In these compounds there was no beta-hairpin turn creating moiety.

With “cyclo(f-Φ-R-r-R-r-Q)-miniPEG-K(NF) (cyclo([dF][2Nal]R[dR]R[dR]Q); not fully specified (residue 7); printed as cyclo(f-Φ-R-r-R-r-Q)-miniPEG-K(NF)) [CPP9, reference compound]” the “Cellular Uptake (MFI^NF, %), cytosolic entry efficiency” value was 100%.

Same assay, conditions: HeLa cells, 5 μM NF-labeled peptide, 2 h, flow cytometry; relative to CPP1 (100%)

Going from “cyclo(A-A-F-Φ-R-p-P-R-r-F-A-A-A-Q)-miniPEG-K(NF) (cyclo(AAF[2Nal]R[dP]PR[dR]FAAAQ); not fully specified (residue 14); printed as cyclo(A-A-F-Φ-R-p-P-R-r-F-A-A-A-Q)-miniPEG-K(NF)) [BH7]” to “cyclo(A-A-F-Φ-R-p-P-r-R-F-A-A-A-Q)-miniPEG-K(NF) (cyclo(AAF[2Nal]R[dP]P[dR]RFAAAQ); not fully specified (residue 14); printed as cyclo(A-A-F-Φ-R-p-P-r-R-F-A-A-A-Q)-miniPEG-K(NF)) [BH5]”, the “Cellular Uptake (MFINF, %)” value falls from 363 ± 213% to 102 ± 45%.

“cyclo(A-A-F-Φ-R-p-P-R-R-F-A-A-A-Q)-miniPEG-K(NF) (cyclo(AAF[2Nal]R[dP]PRRFAAAQ); not fully specified (residue 14); printed as cyclo(A-A-F-Φ-R-p-P-R-R-F-A-A-A-Q)-miniPEG-K(NF)) [BH4]” and “cyclo(A-A-F-Φ-R-p-P-R-R-R-A-A-A-Q)-miniPEG-K(NF) (cyclo(AAF[2Nal]R[dP]PRRRAAAQ); not fully specified (residue 14); printed as cyclo(A-A-F-Φ-R-p-P-R-R-R-A-A-A-Q)-miniPEG-K(NF)) [BH1]” are within error of each other in “Cellular Uptake (MFINF, %)” value: 73 ± 6% for the first, 66 ± 12% for the second.

“cyclo(A-A-F-Φ-F-p-P-R-R-R-A-A-A-Q)-miniPEG-K(NF) (cyclo(AAF[2Nal]F[dP]PRRRAAAQ); not fully specified (residue 14); printed as cyclo(A-A-F-Φ-F-p-P-R-R-R-A-A-A-Q)-miniPEG-K(NF)) [BH3]” and “cyclo(A-A-F-R-R-p-P-R-R-Φ-A-A-A-Q)-miniPEG-K(NF) (cyclo(AAFRR[dP]PRR[2Nal]AAAQ); not fully specified (residue 14); printed as cyclo(A-A-F-R-R-p-P-R-R-Φ-A-A-A-Q)-miniPEG-K(NF)) [BH2]” are within error of each other in “Cellular Uptake (MFINF, %)” value: 30 ± 6% for the first, 24 ± 1% for the second.

Same assay, conditions: HeLa cells, 5 μM peptide, 2 h, DMEM with 10% FBS and 1% ABS; relative to CPP9 (100%)

For “cyclo(f-Φ-R-r-R-r-Q)-miniPEG-K(NF) (cyclo([dF][2Nal]R[dR]R[dR]Q); not fully specified (residue 7); printed as cyclo(f-Φ-R-r-R-r-Q)-miniPEG-K(NF)) [CPP9, reference compound]”, the “Cellular Uptake (MFI^NF, %) of β-hairpin transporters” value was 100%.

In the case of “cyclo(FΦrpPRRFAQ)-miniPEG-K(NF) (cyclo(F[2Nal][dR][dP]PRRFAQ); not fully specified (residue 10); printed as cyclo(FΦrpPRRFAQ)-miniPEG-K(NF)) [BHT2]”, the “Cellular Uptake (MFI^NF, %) of β-hairpin transporters” value is reported as 15% and 15 ± 2%.

Same assay, conditions: HeLa cells, flow cytometry

In the case of “cyclo(A-A-F-Φ-R-p-P-R-R-F-A-A-A-Q)-miniPEG-K(NF) (cyclo(AAF[2Nal]R[dP]PRRFAAAQ); not fully specified (residue 14); printed as cyclo(A-A-F-Φ-R-p-P-R-R-F-A-A-A-Q)-miniPEG-K(NF)) [BH4]”, the “Cellular entry / delivery efficiency (in words)” value is reported as “taken up most efficiently”.

Same assay, conditions: HeLa cells; D-amino acid diastereomers of BH4

In the case of “cyclo(A-A-F-Φ-R-p-P-R-r-F-A-A-A-Q)-miniPEG-K(NF) (cyclo(AAF[2Nal]R[dP]PR[dR]FAAAQ); not fully specified (residue 14); printed as cyclo(A-A-F-Φ-R-p-P-R-r-F-A-A-A-Q)-miniPEG-K(NF)) [BH7]”, the “Improvement of cytosolic entry efficiency relative to BH4” value is reported as 5 fold.

In the case of “cyclo(A-A-F-Φ-R-p-P-r-R-F-A-A-A-Q)-miniPEG-K(NF) (cyclo(AAF[2Nal]R[dP]P[dR]RFAAAQ); not fully specified (residue 14); printed as cyclo(A-A-F-Φ-R-p-P-r-R-F-A-A-A-Q)-miniPEG-K(NF)) [BH5]”, the “Improvement of cytosolic entry efficiency relative to BH4” value is reported as “only minor effect”.

Same assay, conditions: relative to CPP 1 (100%); mean ± S.D. of three independent experiments

First: 284 (CWWWRRRRC; disulfide 1-9) [Peptide 284]
Second: 235 (cyclo(FF[dR]R[dR]Q); SMILES N=C(N)NCCC[C@@H]1NC(=O)[C@@H](CCCNC(=N)N)NC(=O)[C@H](Cc2ccccc2)NC(=O)[C@H](Cc2ccccc2)NC(=O)[C@H](CCC(N)=O)NC(=O)[C@@H](CCCNC(=N)N)NC1=O) [Peptide 235]
The “Cellular Uptake (MFI^NF, %), cytosolic delivery efficiency of CPPs without beta-hairpin moiety” value of the first is lower: 67% for the first, 122% for the second.

Going from 245 (FRRRFRQ; cyclic) [Peptide 245] to 234 (FFRRRQ; cyclic) [Peptide 234], the “Cellular Uptake (MFI^NF, %), cytosolic delivery efficiency of CPPs without beta-hairpin moiety” value rises from 20 ± 3% to 65%.

Compared with 239 (FRRRFQ; cyclic) [Peptide 239], 237 (FRFRRQ; cyclic) [Peptide 237] is lower in “Cellular Uptake (MFI^NF, %), cytosolic delivery efficiency of CPPs without beta-hairpin moiety” value: 25 ± 4% for the first, 15 ± 3% for the second.

First: 268 (FFFRRRRRQ; cyclic) [Peptide 268]
Second: 265 (FFRRFRRQ; cyclic) [Peptide 265]
The “Cellular Uptake (MFI^NF, %), cytosolic delivery efficiency of CPPs without beta-hairpin moiety” value of the first is higher: 145 ± 27% for the first, 46 ± 2% for the second.

Going from “270 (cyclo(F[2Nal]R[dR]R[dR]Q)) [Peptide 270]” to 254 (FFRRFRQ; cyclic) [Peptide 254], the “Cellular Uptake (MFI^NF, %), cytosolic delivery efficiency of CPPs without beta-hairpin moiety” value falls from 212 ± 42% to 86 ± 12%.

Going from 263 (RFFFRRRQ; cyclic) [Peptide 263] to “236 (cyclo(FFR[dR]RQ); SMILES N=C(N)NCCC[C@@H]1NC(=O)[C@H](Cc2ccccc2)NC(=O)[C@H](Cc2ccccc2)NC(=O)[C@H](CCC(N)=O)NC(=O)[C@H](CCCNC(=N)N)NC(=O)[C@@H](CCCNC(=N)N)NC1=O) [Peptide 236]”, the “Cellular Uptake (MFI^NF, %), cytosolic delivery efficiency of CPPs without beta-hairpin moiety” value falls from 167 ± 10% to 40%.

First: 257 (FRFRFRQ; cyclic) [Peptide 257]
Second: 283 (CWWRRRRC; disulfide 1-8) [Peptide 283]
The “Cellular Uptake (MFI^NF, %), cytosolic delivery efficiency of CPPs without beta-hairpin moiety” value of the first is higher: 105 ± 14% for the first, 51% for the second.

Compared with 249 (FFFRRRQ; cyclic) [Peptide 249], “281 (Ac-K[dF]FR[dR]R[dR]D; lactam 1-8 (inferred); not fully specified; printed as Ac-(Lys-fFRrRrD)) [Peptide 281]” is lower in “Cellular Uptake (MFI^NF, %), cytosolic delivery efficiency of CPPs without beta-hairpin moiety” value: 231 ± 43% for the first, 129 ± 9% for the second.

First: 273 (cyclo([dF]F[dF][dR]R[dR]Q); SMILES N=C(N)NCCC[C@@H]1NC(=O)[C@@H](CCCNC(=N)N)NC(=O)[C@@H](Cc2ccccc2)NC(=O)[C@H](Cc2ccccc2)NC(=O)[C@@H](Cc2ccccc2)NC(=O)[C@H](CCC(N)=O)NC(=O)[C@@H](CCCNC(=N)N)NC1=O) [Peptide 273]
Second: 286 (CWWWRRRC; disulfide 1-8) [Peptide 286]
The “Cellular Uptake (MFI^NF, %), cytosolic delivery efficiency of CPPs without beta-hairpin moiety” value of the first is higher: 463 ± 94% for the first, 135% for the second.

Going from 256 (FRRFRFQ; cyclic) [Peptide 256] to “259 (cyclo(G[2Nal]RRRRQ); SMILES N=C(N)NCCC[C@@H]1NC(=O)[C@H](Cc2ccc3ccccc3c2)NC(=O)CNC(=O)[C@H](CCC(N)=O)NC(=O)[C@H](CCCNC(=N)N)NC(=O)[C@H](CCCNC(=N)N)NC(=O)[C@H](CCCNC(=N)N)NC1=O) [Peptide 259]”, the “Cellular Uptake (MFI^NF, %), cytosolic delivery efficiency of CPPs without beta-hairpin moiety” value falls from 101 ± 16% to 55 ± 5%.

Going from 258 (RFFRFRQ; cyclic) [Peptide 258] to “271 (cyclo([Phe(4-F)][Phe(4-F)]RRRRQ); SMILES N=C(N)NCCC[C@@H]1NC(=O)[C@H](CCCNC(=N)N)NC(=O)[C@H](CCCNC(=N)N)NC(=O)[C@H](Cc2ccc(F)cc2)NC(=O)[C@H](Cc2ccc(F)cc2)NC(=O)[C@H](CCC(N)=O)NC(=O)[C@H](CCCNC(=N)N)NC1=O) [Peptide 271]”, the “Cellular Uptake (MFI^NF, %), cytosolic delivery efficiency of CPPs without beta-hairpin moiety” value rises from 96 ± 31% to 165 ± 22%.

242 (FFFRRQ; cyclic) [Peptide 242] was tested, and the “Cellular Uptake (MFI^NF, %), cytosolic delivery efficiency of CPPs without beta-hairpin moiety” value was 125 ± 25%.
